In paper PMC5053523, “In Vitro Antibacterial Activity of Rhodanine Derivatives against Pathogenic Clinical Isolates” (PLoS ONE, 2016):
In brackets after ≈: the same amount, converted by molar mass. Where two headings read alike, the source gives them in different places.

How the values were obtained:
Assay type in all cases: cell-based
B. licheniformis = experiment: Broth microdilution MIC/MBC, B. licheniformis; conditions: Bacillus licheniformis; for MBC: read-out: MBC; for MIC: read-out: MIC
P. aeruginosa = experiment: Broth microdilution MIC, P. aeruginosa; conditions: Pseudomonas aeruginosa
Clostridium difficile = experiment: MIC against Clostridium difficile, anaerobic broth dilution; conditions: Clostridioides difficile
How it was run: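 Clinical C. difficile isolates grown anaerobically 48 h at 37 °C, suspended to 0.5 McFarland and diluted 1:300 in pre-reduced supplemented Brain Heart Infusion broth. Compounds serially diluted; plates incubated anaerobically at 37 °C for 48 h. MIC = lowest concentration with no visible growth.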

[1] = test system: vancomycin resistant enterococci (VRE) E. faecalis; experiment: Broth microdilution MIC/MBC, VRE E. faecalis; conditions: for MIC: read-out: MIC
[2] = test system: Vancomycin Resistant Staphylococcus aureus (VRSA); experiment: Broth microdilution MIC/MBC, VRSA; conditions: for MBC / MIC: VRSA
Salmonella Typhimurium = experiment: MIC with/without PMBN, Salmonella Typhimurium
How it was run: (§1)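 Sub-MIC colistin or PMBN added to broth MIC tests of rhodanines and reference antibiotics against Gram-negative strains; AcrAB efflux-deficient E. coli SM1411ΔacrAB also tested.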

Klebsiella pneumoniae = experiment: MIC with/without sub-MIC colistin, Klebsiella pneumoniae
How it was run: as §1

Pseudomonas aeruginosa [3] = experiment: MIC with/without sub-MIC colistin, Pseudomonas aeruginosa
How it was run: as §1

[4] = test system: methicillin-resistant Staphylococcus aureus (MRSA); experiment: Broth microdilution MIC/MBC, MRSA
K. pneumoniae = experiment: Broth microdilution MIC, K. pneumoniae
Pseudomonas aeruginosa [5] = experiment: MIC with/without PMBN, Pseudomonas aeruginosa
How it was run: as §1

[6] = test system: vancomycin resistant enterococci (VRE) E. faecium; experiment: Broth microdilution MIC/MBC, VRE E. faecium; conditions: for MIC: read-out: MIC
Acinetobacter baumannii = experiment: MIC with/without PMBN, Acinetobacter baumannii
How it was run: as §1

[7] = NCIB9375, B. licheniformis Gibson 46 (NCIB 9375) NR-2494
[8] = NRS712, B. licheniformis NRS 712 NR-2499
[9] = E. faecalis NR31972 Strain SF 28073
[10] = E. faecium HM 968 Strain ERV102
[11] = E. faecium NR31914 Strain E0120
[12] = E. faecium Patient #1–1 NR-31903

O=C(O)[C@H](Cc1ccccc1)N1C(=O)/C(=C/c2cccc(-c3ccccc3)c2)SC1=S [Rh 5]
MBC (B. licheniformis; [7]): 8 µM (≈ 3.56 µg/mL) | MIC (B. licheniformis; [7]): 8 µM (≈ 3.56 µg/mL) | MBC (B. licheniformis; [8]): 8 µM (≈ 3.56 µg/mL) | MIC (B. licheniformis; [8]): 8 µM (≈ 3.56 µg/mL) | MIC (P. aeruginosa; ATCC9721): > 128 µM | MIC (P. aeruginosa; ATCC15442): > 128 µM | MIC (Clostridium difficile; C. difficile HM-88): 4 µM (≈ 1.78 µg/mL) | MIC (Clostridium difficile; C. difficile HM-745): 4 µM (≈ 1.78 µg/mL) | MIC (Clostridium difficile; C. difficile HM-746): 2 µM (≈ 0.891 µg/mL) | MIC (Clostridium difficile; C. difficile Isolate-1 NR-13427): 4 µM (≈ 1.78 µg/mL) | MIC (Clostridium difficile; C. difficile Toxigenic Strain P8 NR-32888): 4 µM (≈ 1.78 µg/mL) | MBC ([1]; E. faecalis ERV103 HM-934): 16 µM (≈ 7.13 µg/mL) | MIC ([1]; E. faecalis ERV103 HM-934): 16 µM (≈ 7.13 µg/mL) | MBC [1, 9]: 16 µM (≈ 7.13 µg/mL) | MIC [1, 9]: 16 µM (≈ 7.13 µg/mL) | MBC ([1]; E. faecalis R712 HM-335): 16 µM (≈ 7.13 µg/mL) | MIC ([1]; E. faecalis R712 HM-335): 8 µM (≈ 3.56 µg/mL) | MBC ([1]; E. faecalis S613 HM-334): 16 µM (≈ 7.13 µg/mL) | MIC ([1]; E. faecalis S613 HM-334): 16 µM (≈ 7.13 µg/mL) | MBC ([1]; E. faecalis TX0104 HM-201): 16 µM (≈ 7.13 µg/mL) | MIC ([1]; E. faecalis TX0104 HM-201): 16 µM (≈ 7.13 µg/mL) | MIC50 ([2]; 15 VRSA strains, read-out: MIC 50): 8 µM (≈ 3.56 µg/mL) | MIC90 ([2]; 15 VRSA strains, read-out: MIC 90): 8 µM (≈ 3.56 µg/mL) | MBC ([2]; VRSA 1, read-out: MBC): 16 µM (≈ 7.13 µg/mL) | MIC ([2]; VRSA 1, read-out: MIC): 8 µM (≈ 3.56 µg/mL) | MBC ([2]; VRSA 2, read-out: MBC): 8 µM (≈ 3.56 µg/mL) | MIC ([2]; VRSA 2, read-out: MIC): 8 µM (≈ 3.56 µg/mL) | MBC ([2]; VRSA 3a, read-out: MBC): 16 µM (≈ 7.13 µg/mL) | MIC ([2]; VRSA 3a, read-out: MIC): 8 µM (≈ 3.56 µg/mL) | MBC ([2]; VRSA 3b, read-out: MBC): 16 µM (≈ 7.13 µg/mL) | MIC ([2]; VRSA 3b, read-out: MIC): 8 µM (≈ 3.56 µg/mL) | MBC ([2]; VRSA 4, read-out: MBC): 16 µM (≈ 7.13 µg/mL) | MIC ([2]; VRSA 4, read-out: MIC): 8 µM (≈ 3.56 µg/mL) | MBC ([2]; VRSA 5, read-out: MBC): 16 µM (≈ 7.13 µg/mL) | MIC ([2]; VRSA 5, read-out: MIC): 8 µM (≈ 3.56 µg/mL) | MBC ([2]; VRSA 6, read-out: MBC): 16 µM (≈ 7.13 µg/mL) | MIC ([2]; VRSA 6, read-out: MIC): 8 µM (≈ 3.56 µg/mL) | MBC ([2]; VRSA 7, read-out: MBC): 32 µM (≈ 14.3 µg/mL) | MIC ([2]; VRSA 7, read-out: MIC): 8 µM (≈ 3.56 µg/mL) | MBC ([2]; VRSA 8, read-out: MBC): 16 µM (≈ 7.13 µg/mL) | MIC ([2]; VRSA 8, read-out: MIC): 8 µM (≈ 3.56 µg/mL) | MBC ([2]; VRSA 9, read-out: MBC): 16 µM (≈ 7.13 µg/mL) | MIC ([2]; VRSA 9, read-out: MIC): 16 µM (≈ 7.13 µg/mL) | MBC ([2]; VRSA 10, read-out: MBC): 16 µM (≈ 7.13 µg/mL) | MIC ([2]; VRSA 10, read-out: MIC): 8 µM (≈ 3.56 µg/mL) | MBC ([2]; VRSA 11a, read-out: MBC): 16 µM (≈ 7.13 µg/mL) | MIC ([2]; VRSA 11a, read-out: MIC): 8 µM (≈ 3.56 µg/mL) | MBC ([2]; VRSA 11b, read-out: MBC): 16 µM (≈ 7.13 µg/mL) | MIC ([2]; VRSA 11b, read-out: MIC): 8 µM (≈ 3.56 µg/mL) | MBC ([2]; VRSA 12, read-out: MBC): 16 µM (≈ 7.13 µg/mL) | MIC ([2]; VRSA 12, read-out: MIC): 8 µM (≈ 3.56 µg/mL) | MBC ([2]; VRSA 13, read-out: MBC): 16 µM (≈ 7.13 µg/mL) | MIC ([2]; VRSA 13, read-out: MIC): 8 µM (≈ 3.56 µg/mL) | MIC (Salmonella Typhimurium; Salmonella Typhimurium ATCC 700720, PMBN (+) 4 μg/mL, read-out: MIC): >128 µM | MIC (Salmonella Typhimurium; Salmonella enterica, ATCC 700720 / TYPHIMURIUM): > 128 µM | MIC (Klebsiella pneumoniae; Klebsiella pneumoniae ATCC BAA 2146, colistin (+) […]): >64 µM | MIC (Klebsiella pneumoniae; Klebsiella pneumoniae, BAA2146): > 128 µM | MIC (Pseudomonas aeruginosa [3]; Pseudomonas aeruginosa ATCC 921, colistin (+) […], read-out: MIC): >64 µM | MIC (Pseudomonas aeruginosa [3]; Pseudomonas aeruginosa, ATCC921): > 128 µM | MIC50 ([4]; 11 MRSA strains): 8 µM (≈ 3.56 µg/mL) | MIC90 ([4]; 11 MRSA strains): 16 µM (≈ 7.13 µg/mL) | MBC ([4]; MRSA NRS 1): 16 µM (≈ 7.13 µg/mL) | MIC ([4]; MRSA NRS 1): 8 µM (≈ 3.56 µg/mL) | MBC ([4]; MRSA NRS 19): 16 µM (≈ 7.13 µg/mL) | MIC ([4]; MRSA NRS 19): 8 µM (≈ 3.56 µg/mL) | MBC ([4]; MRSA NRS 37): 16 µM (≈ 7.13 µg/mL) | MIC ([4]; MRSA NRS 37): 16 µM (≈ 7.13 µg/mL) | MBC ([4]; MRSA NRS 107): 16 µM (≈ 7.13 µg/mL) | MIC ([4]; MRSA NRS 107): 16 µM (≈ 7.13 µg/mL) | MBC ([4]; MRSA NRS 119): 8 µM (≈ 3.56 µg/mL) | MIC ([4]; MRSA NRS 119): 8 µM (≈ 3.56 µg/mL) | MBC ([4]; MRSA NRS 382): 8 µM (≈ 3.56 µg/mL) | MIC ([4]; MRSA NRS 382): 8 µM (≈ 3.56 µg/mL) | MBC ([4]; MRSA NRS 383): 16 µM (≈ 7.13 µg/mL) | MIC ([4]; MRSA NRS 383): 16 µM (≈ 7.13 µg/mL) | MBC ([4]; MRSA NRS 384): 64 µM (≈ 28.5 µg/mL) | MIC ([4]; MRSA NRS 384): 8 µM (≈ 3.56 µg/mL) | MBC ([4]; MRSA NRS 385): 16 µM (≈ 7.13 µg/mL) | MIC ([4]; MRSA NRS 385): 8 µM (≈ 3.56 µg/mL) | MBC ([4]; MRSA NRS 386): 64 µM (≈ 28.5 µg/mL) | MIC ([4]; MRSA NRS 386): 8 µM (≈ 3.56 µg/mL) | MBC ([4]; MRSA NRS 387): 8 µM (≈ 3.56 µg/mL) | MIC ([4]; MRSA NRS 387): 8 µM (≈ 3.56 µg/mL) | MIC (K. pneumoniae; K. pneumoniae NR-15417): >128 µM | MIC (K. pneumoniae; Klebsiella pneumoniae): > 128 µM | MIC (Pseudomonas aeruginosa [5]; Pseudomonas aeruginosa ATCC 9721, PMBN (+) 4 μg/mL, read-out: MIC): >64 µM | MIC (Pseudomonas aeruginosa [5]; Pseudomonas aeruginosa, ATCC9721): > 128 µM | MBC ([6]; E. faecium E417 HM-965): > 64 µM | MIC ([6]; E. faecium E417 HM-965): 8 µM (≈ 3.56 µg/mL) | MBC ([6]; E. faecium E1071 NR-28978): > 64 µM | MIC ([6]; E. faecium E1071 NR-28978): 16 µM (≈ 7.13 µg/mL) | MBC [6, 10]: 64 µM (≈ 28.5 µg/mL) | MIC [6, 10]: 16 µM (≈ 7.13 µg/mL) | MBC [6, 11]: > 64 µM | MIC [6, 11]: 16 µM (≈ 7.13 µg/mL) | MBC [6, 12]: 64 µM (≈ 28.5 µg/mL) | MIC [6, 12]: 8 µM (≈ 3.56 µg/mL) | MIC (Acinetobacter baumannii; Acinetobacter baumannii ATCC BAA747, PMBN (+) 4 μg/mL, read-out: MIC): >64 µM | MIC (Acinetobacter baumannii; Acinetobacter baumannii ATCC BAA19606, PMBN (+) 4 μg/mL, read-out: MIC): >64 µM | MIC (Acinetobacter baumannii; Acinetobacter baumannii, ATCCBAA747): > 128 µM | MIC (Acinetobacter baumannii; Acinetobacter baumannii, ATCCBAA19606): > 128 µM
